Results on 18 compounds are retold here after patent US9242987B2, “Heterocyclyl pyrazolopyrimidine analogues as JAK inhibitors” (Cellzome Limited, priority 2009, dated 2016).

For orientation: IC50 means the concentration that inhibits the measured activity by half. Read a high IC50 as weaker potency in that assay.

The target in one experiment is T1, JAK3 (Homo sapiens, UniProt P52333).
T1 construct: endogenous in cells; host or cells: Mixed Molt4/Ramos lysate (1:2)
T1 sequence (P52333 1-1124): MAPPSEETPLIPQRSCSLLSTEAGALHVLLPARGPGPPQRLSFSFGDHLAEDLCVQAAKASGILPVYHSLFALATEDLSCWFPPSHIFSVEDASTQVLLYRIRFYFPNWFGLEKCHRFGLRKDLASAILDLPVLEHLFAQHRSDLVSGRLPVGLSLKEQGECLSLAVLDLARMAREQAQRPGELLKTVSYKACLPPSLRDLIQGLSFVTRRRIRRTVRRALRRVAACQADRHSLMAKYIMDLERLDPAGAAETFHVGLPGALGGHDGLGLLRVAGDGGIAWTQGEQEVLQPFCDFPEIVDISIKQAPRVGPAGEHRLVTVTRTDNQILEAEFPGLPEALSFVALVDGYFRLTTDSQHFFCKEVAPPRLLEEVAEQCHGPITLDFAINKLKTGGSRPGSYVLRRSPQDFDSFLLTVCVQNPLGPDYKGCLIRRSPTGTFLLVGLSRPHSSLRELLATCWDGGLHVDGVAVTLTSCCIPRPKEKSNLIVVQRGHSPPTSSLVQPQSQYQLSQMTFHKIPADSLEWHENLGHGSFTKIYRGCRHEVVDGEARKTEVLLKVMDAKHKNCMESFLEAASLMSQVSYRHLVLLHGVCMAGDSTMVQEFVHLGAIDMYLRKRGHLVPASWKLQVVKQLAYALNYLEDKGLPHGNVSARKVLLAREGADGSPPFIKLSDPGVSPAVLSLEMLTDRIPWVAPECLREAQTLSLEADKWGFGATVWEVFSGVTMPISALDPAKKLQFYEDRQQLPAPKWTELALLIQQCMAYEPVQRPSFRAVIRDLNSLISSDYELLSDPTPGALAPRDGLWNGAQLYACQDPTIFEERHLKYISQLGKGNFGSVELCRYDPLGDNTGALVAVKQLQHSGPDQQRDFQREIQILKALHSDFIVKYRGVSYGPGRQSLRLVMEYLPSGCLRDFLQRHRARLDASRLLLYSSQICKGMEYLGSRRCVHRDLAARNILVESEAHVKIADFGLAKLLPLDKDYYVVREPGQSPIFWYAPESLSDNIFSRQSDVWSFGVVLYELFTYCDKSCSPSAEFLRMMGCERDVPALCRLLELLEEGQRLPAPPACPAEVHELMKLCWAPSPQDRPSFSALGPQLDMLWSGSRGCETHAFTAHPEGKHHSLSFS
Nature of the experiment: Kinobeads assay, JAK3. Conditions: mixed Molt4/Ramos cell lysate, dot blot detection. In kind it is binding. Here is the method: (§1) The compounds of the present invention as described in the previous examples were tested in a Kinobeads™ assay as described for ZAP-70 (WO-A 2007/137867). Briefly, test compounds (at various concentrations) and the affinity matrix with the immobilized aminopyrido-pyrimidine ligand 24 were added to cell lysate aliquots and allowed to bind to the proteins in the lysate sample. After the incubation time the beads with captured proteins were separated from the lysate. Bound proteins were then eluted and the presence of JAK2 and JAK3 was detected and quantified using specific antibodies in a dot blot procedure and the Odyssey infrared detection system. Dose response curves for individual kinases were generated and IC50 values calculated. Kinobeads™ assays for ZAP-70 (WO-A 2007/137867) and for kinase selectivity profiling (WO-A 2006/134056) have been previously described.
(§2) The affinity matrix was washed two times with 15 mL of 1×DP buffer containing 0.2% NP40 (IGEPAL® CA-630, Sigma, #13021) and then resuspended in 1×DP buffer containing 0.2% NP40 (3% beads slurry).
(§3) 5×DP buffer: 250 mM Tris-HCl pH 7.4, 25% Glycerol, 7.5 mM MgCl2, 750 mM NaCl, 5 mM Na3VO4; filter the 5×DP buffer through a 0.22 μm filter and store in aliquots at −80° C. The 5×DP buffer is diluted with H2O to 1×DP buffer containing 1 mM DTT and 25 mM NaF.
(§4) Stock solutions of test compounds were prepared in DMSO. In a 96 well plate 30 μL solution of diluted test compounds at 5 mM in DMSO were prepared. Starting with this solution a 1:3 dilution series (9 steps) was prepared. For control experiments (no test compound) a buffer containing 2% DMSO was used.
(§5) Molt4 cells (ATCC catalogue number CRL-1582) and Ramos cells (ATCC catalogue number CRL-1596) were grown in 1 L Spinner flasks (Integra Biosciences, #182101) in suspension in RPMI 1640 medium (Invitrogen, #21875-034) supplemented with 10% Fetal Bovine Serum (Invitrogen) at a density between 0.15×10^6 and 1.2×10^6 cells/mL. Cells were harvested by centrifugation, washed once with 1×PBS buffer (Invitrogen, #14190-094) and cell pellets were frozen in liquid nitrogen and subsequently stored at −80° C. Cells were homogenized in a Potter S homogenizer in lysis buffer: 50 mM Tris-HCl, 0.8% NP40, 5% glycerol, 150 mM NaCl, 1.5 mM MgCl2, 25 mM NaF, 1 mM sodium vanadate, 1 mM DTT, pH 7.5. One complete EDTA-free tablet (protease inhibitor cocktail, Roche Diagnostics, 1873580) per 25 mL buffer was added. The material was dounced 10 times using a mechanized POTTER S, transferred to 50 mL falcon tubes, incubated for 30 minutes on ice and spun down for 10 minutes at 20,000 g at 4° C. (10,000 rpm in Sorvall SLA600, precooled). The supernatant was transferred to an ultracentrifuge (UZ)-polycarbonate tube (Beckmann, 355654) and spun for 1 hour at 100.000 g at 4° C. (33.500 rpm in Ti50.2, precooled). The supernatant was transferred again to a fresh 50 mL falcon tube, the protein concentration was determined by a Bradford assay (BioRad) and samples containing 50 mg of protein per aliquot were prepared. The samples were immediately used for experiments or frozen in liquid nitrogen and stored frozen at −80° C.
(§6) Cell lysate (approximately 50 mg protein per plate) was thawed in a water bath at room temperature and then stored on ice. To the thawed cell lysate 1×DP 0.8% NP40 buffer containing protease inhibitors (1 tablet for 25 mL buffer; EDTA-free protease inhibitor cocktail; Roche Diagnostics 1873580) was added in order to reach a final protein concentration of 10 mg/mL total protein. The diluted cell lysate was stored on ice. Mixed Molt4/Ramos lysate was prepared by combining one volume of Molt4 lysate and two volumes of Ramos lysate (ratio 1:2).
(§7) To a 96 well filter plate (Multiscreen HTS, BV Filter Plates, Millipore #MSBVN1250) were added per well: 100 μL affinity matrix (3% beads slurry), […], of compound solution, and 50 μL of diluted lysate. […]

A further experiment concerns the target T2, JAK2 (Homo sapiens, UniProt O60674).
T2 construct: endogenous in cells; host or cells: Mixed Molt4/Ramos lysate (1:2)
Nature of the experiment: Kinobeads assay, JAK2. In kind it is binding. The conditions noted are these: mixed Molt4/Ramos cell lysate, dot blot detection. Here is the method: as §1, §2, §3, §4, §5, §6, §7

Structures are written as SMILES.

T2 sequence (O60674 whole entry): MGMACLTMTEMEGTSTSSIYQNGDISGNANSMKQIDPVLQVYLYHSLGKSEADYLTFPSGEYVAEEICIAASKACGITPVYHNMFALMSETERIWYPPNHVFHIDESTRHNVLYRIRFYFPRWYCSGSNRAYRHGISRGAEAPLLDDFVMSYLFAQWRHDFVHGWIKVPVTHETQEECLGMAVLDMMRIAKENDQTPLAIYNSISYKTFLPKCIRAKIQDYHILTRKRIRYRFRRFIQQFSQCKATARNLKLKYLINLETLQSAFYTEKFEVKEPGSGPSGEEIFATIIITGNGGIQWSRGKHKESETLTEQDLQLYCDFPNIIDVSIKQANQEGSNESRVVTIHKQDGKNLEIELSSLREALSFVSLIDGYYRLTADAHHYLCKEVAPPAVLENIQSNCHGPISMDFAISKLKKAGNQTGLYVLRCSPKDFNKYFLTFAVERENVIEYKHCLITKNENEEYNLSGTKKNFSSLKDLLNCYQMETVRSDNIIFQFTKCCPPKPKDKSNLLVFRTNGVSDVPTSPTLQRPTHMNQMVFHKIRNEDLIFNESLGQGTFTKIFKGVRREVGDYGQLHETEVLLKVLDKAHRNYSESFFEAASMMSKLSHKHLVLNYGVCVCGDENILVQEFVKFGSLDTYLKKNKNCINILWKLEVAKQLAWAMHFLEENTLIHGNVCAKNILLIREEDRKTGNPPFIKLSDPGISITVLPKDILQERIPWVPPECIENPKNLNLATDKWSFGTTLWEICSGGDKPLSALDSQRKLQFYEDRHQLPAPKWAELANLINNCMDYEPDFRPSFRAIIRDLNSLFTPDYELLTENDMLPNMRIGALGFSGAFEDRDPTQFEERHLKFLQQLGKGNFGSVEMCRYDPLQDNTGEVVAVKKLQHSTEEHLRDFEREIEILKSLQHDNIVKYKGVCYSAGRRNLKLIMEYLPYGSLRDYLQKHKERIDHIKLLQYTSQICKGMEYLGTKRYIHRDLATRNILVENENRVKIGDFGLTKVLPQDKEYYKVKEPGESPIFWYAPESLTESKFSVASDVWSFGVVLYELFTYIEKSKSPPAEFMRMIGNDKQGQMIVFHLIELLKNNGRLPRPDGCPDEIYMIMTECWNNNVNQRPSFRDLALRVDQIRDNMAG

For the compound `Cn1cc(Nc2ncc3cnn(-c4ccccc4)c3n2)cn1` [Example 74, N-(1-Methyl-1H-pyrazol-4-yl)-1-phenyl-1H-pyrazolo[3,4-d]pyrimidin-6-amine], the IC50 at JAK3 fell in the range of 100 to 1000 nM; at JAK2, 1000 to 10000 nM.

In the case of `Fc1ccc(F)c(Cn2ncc3cnc(Nc4cnn(CC(F)F)c4)nc32)c1F` [Example 157, N-(1-(2,2-Difluoroethyl)-1H-pyrazol-4-yl)-1-(2,3,6-trifluorobenzyl)-1H-pyrazolo[3,4-d]pyrimidin-6-amine], the half-inhibitory concentration (IC50) at JAK3 is less than 100 nM; at JAK2, 100 to 1000 nM.

`Cn1cc(Nc2ncc3cnn(Cc4cccc(C#N)c4F)c3n2)cn1` [Example 107, 2-Fluoro-3-((6-((1-methyl-1H-pyrazol-4-yl)amino)-1H-pyrazolo[3,4-d]pyrimidin-1-yl)methyl)benzonitrile]: the IC50 is less than 100 nM at JAK3 and 1000 to 10000 nM at JAK2.

Consider `Cn1cc(Nc2ncc3cnn(Cc4ccc(F)cc4)c3n2)cn1` [Example 99, 1-(4-Fluorobenzyl)-N-(1-methyl-1H-pyrazol-4-yl)-1H-pyrazolo[3,4-d]pyrimidin-6-amine], for which the IC50 against JAK3 was 100 to 1000 nM; against JAK2, not below 10000 nM.

On to `Cn1cc(Nc2ncc3cnn(CCc4cccc(F)c4)c3n2)cn1` [Example 81, 1-(3-Fluorophenethyl)-N-(1-methyl-1H-pyrazol-4-yl)-1H-pyrazolo[3,4-d]pyrimidin-6-amine], for which the concentration for half-maximal inhibition (IC50) at JAK3 lay within 100 to 1000 nM; on JAK2, 1000 to 10000 nM.

On to `Cn1cc(Nc2ncc3cnn(Cc4cc(F)ccc4F)c3n2)cn1` [Example 30, 1-(2,5-Difluorobenzyl)-N-(1-methyl-1H-pyrazol-4-yl)-1H-pyrazolo[3,4-d]pyrimidin-6-amine], for which the IC50 against JAK3 and against JAK2 was less than 100 nM throughout.

In the case of `CNC(=O)c1cc(Nc2ncc3cnn(Cc4ccccc4F)c3n2)c[nH]1` [Example 239, 4-((1-(2-Fluorobenzyl)-1H-pyrazolo[3,4-d]pyrimidin-6-yl)amino)-N-methyl-1H-pyrrole-2-carboxamide], the 50% inhibitory concentration (IC50) at JAK3 and against JAK2 was less than 100 nM each time.

Regarding `COCCn1cc(Nc2ncc3cnn(Cc4ccccc4C#N)c3n2)cn1` [Example 10, 2-((6-(1-(2-Methoxyethyl)-1H-pyrazol-4-ylamino)-1H-pyrazolo[3,4-d]pyrimidi-1-yl)methyl)benzonitrile], the concentration for half-maximal inhibition (IC50) at JAK3 is less than 100 nM; against JAK2, 100 to 1000 nM.

Turning to `Cn1cc(Nc2ncc3cnn(Cc4cccc(F)c4C#N)c3n2)cn1` [Example 108, 2-Fluoro-6-((6-((1-methyl-1H-pyrazol-4-yl)amino)-1H-pyrazolo[3,4-d]pyrimidin-1-yl)methyl)benzonitrile], the IC50 at JAK3 is 100 to 1000 nM; against JAK2, 1000 to 10000 nM.

`Cn1cc(Nc2ncc3cnn(Cc4cccc(OC5CCOC5)c4)c3n2)cn1` (stereo not drawn) [Example 181, N-(1-Methyl-1H-pyrazol-4-yl)-1-(3-((tetrahydrofuran-3-yl)oxy)benzyl)-1H-pyrazolo[3,4-d]pyrimidin-6-amine]: the results for the half-inhibitory concentration (IC50) at JAK3 and at JAK2 were less than 100 nM and not below 10000 nM, respectively.

For the compound `CC(C)n1ccc(Nc2ncc3cnn(Cc4ccccc4C#N)c3n2)n1` [Example 19, 2-((6-(1-Isopropyl-1H-pyrazol-3-ylamino)-1H-pyrazolo[3,4-d]pyrimidin-1-yl)methyl)benzonitrile], the half-inhibitory concentration (IC50) was 1000 to 10000 nM at JAK3 and not below 10000 nM on JAK2.

`COCCOc1cccc(Cn2ncc3cnc(Nc4cnn(C)c4)nc32)c1C` [Example 185, 1-(3-(2-Methoxyethoxy)-2-methylbenzyl)-N-(1-methyl-1H-pyrazol-4-yl)-1H-pyrazolo[3,4-d]pyrimidin-6-amine]: the half-maximal inhibitory concentration (IC50) was less than 100 nM on JAK3 and not below 10000 nM at JAK2.

For the compound `Cc1cc(-n2ncc3cnc(Nc4cnn(C)c4)nc32)ccc1F` [Example 60, 1-(4-fluoro-3-methylphenyl)-N-(1-methyl-1H-pyrazol-4-yl)-1H-pyrazolo[3,4-d]pyrimidin-6-amine], the results for the 50% inhibitory concentration (IC50) against JAK3 and at JAK2 were 100 to 1000 nM and 1000 to 10000 nM, respectively.

Consider `O=C1COCCN1c1ccc(F)c(Cn2ncc3cnc(Nc4cnn(CCO)c4)nc32)c1F` [Example 293, 4-(2,4-Difluoro-3-((6-((1-(2-hydroxyethyl)-1H-pyrazol-4-yl)amino)-1H-pyrazolo[3,4-d]pyrimidin-1-yl)methyl)phenyl)morpholin-3-one], for which the IC50 against JAK3 is less than 100 nM; at JAK2 it was 1000 to 10000 nM.

In the case of `Cn1cc(Nc2ncc3cnn(Cc4ccccc4OCCOCc4ccccc4)c3n2)cn1` [Example 221, 1-(2-(2-(Benzyloxy)ethoxy)benzyl)-N-(1-methyl-1H-pyrazol-4-yl)-1H-pyrazolo[3,4-d]pyrimidin-6-amine], the results for the IC50 against JAK3 and against JAK2 were 100 to 1000 nM and 1000 to 10000 nM, respectively.

Regarding `N#CCCn1cc(Nc2ncc3cnn(Cc4ccccc4C#N)c3n2)cn1` [Example 15, 2-((6-(1-(2-Cyanoethyl)-1H-pyrazol-4-ylamino)-1H-pyrazolo[3,4-d]pyrimidin-1-yl)methyl)benzonitrile], the IC50 is less than 100 nM against JAK3 and 1000 to 10000 nM against JAK2.

For the compound `Cn1cc(Nc2ncc3cnn(Cc4cccc(OCCOCc5ccccc5)c4)c3n2)cn1` [Example 222, 1-(3-(2-(Benzyloxy)ethoxy)benzyl)-N-(1-methyl-1H-pyrazol-4-yl)-1H-pyrazolo[3,4-d]pyrimidin-6-amine], the results for the half-maximal inhibitory concentration (IC50) at JAK3 and on JAK2 were 100 to 1000 nM and not below 10000 nM, respectively.

For `Cc1c(F)cccc1Cn1ncc2cnc(Nc3cnn(C)c3)nc21` [Example 115, 1-(3-Fluoro-2-methylbenzyl)-N-(1-methyl-1H-pyrazol-4-yl)-1H-pyrazolo[3,4-d]pyrimidin-6-amine], the IC50 on JAK3 was less than 100 nM; against JAK2, 1000 to 10000 nM.
